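Test compounds were applied to cells in 96-well plates for 48 hours at 5 doses. GI50 = concentration required for 50% inhibition of growth. TGI: total growth inhibition.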
Columns and labels:
Experiment in all cases: NCI tumour cell line growth inhibition, 48 h
KM12 colon = system: KM12 colon
MCF7 breast = system: MCF7 breast
MDA-MB-435 = system: MDA-MB-435
NCI-H23 lung = system: NCI-H23 lung
NCI-H460 lung = system: NCI-H460 lung
OVCAR-3 ovarian = system: OVCAR-3 ovarian
OVCAR-8 ovarian = system: OVCAR-8 ovarian
PC-3 prostate = system: PC-3 prostate
RXF 393 renal = system: RXF 393 renal
SK-MEL-2 melanoma = system: SK-MEL-2 melanoma

Compound	TGI (KM12 colon) [µM]	TGI (MCF7 breast) [µM]	TGI (MDA-MB-435) [µM]	TGI (NCI-H23 lung) [µM]	TGI (NCI-H460 lung) [µM]	TGI (OVCAR-3 ovarian) [µM]	TGI (OVCAR-8 ovarian) [µM]	TGI (PC-3 prostate) [µM]	TGI (RXF 393 renal) [µM]	TGI (SK-MEL-2 melanoma) [µM]	GI50 (KM12 colon) [µM]	GI50 (MCF7 breast) [µM]	GI50 (MDA-MB-435) [µM]	GI50 (NCI-H23 lung) [µM]	GI50 (NCI-H460 lung) [µM]	GI50 (OVCAR-3 ovarian) [µM]	GI50 (OVCAR-8 ovarian) [µM]	GI50 (PC-3 prostate) [µM]	GI50 (RXF 393 renal) [µM]	GI50 (SK-MEL-2 melanoma) [µM]
Cc1nc([N+](=O)[O-])cn1-c1nc2ccccn2c1[N+](=O)[O-]	> 100	> 100	> 100	> 100	> 100	> 100	> 100	> 100	44.5	> 100										
Cc1cc2c(C(=O)NC[C@H](C)c3ccccc3)c(O)c(O)cc2c(O)c1-c1c(C)cc2c(C(=O)NC[C@H](C)c3ccccc3)c(O)c(O)cc2c1O	2.24	4.2	4.79	1.65	0.388	1.55	10.1	1.46	0.895	4.23	0.107	0.0685	0.232	0.0571	0.0334	0.306	0.588	0.342	0.197	0.596
O=c1c2c(nc3n1CCS3)[nH]c1cc([N+](=O)[O-])ccc12	> 100	30.9	> 100	> 100	> 100	81.2	> 100	> 100	> 100	> 100	> 100	7.57	> 100	> 100	> 100	25.5	> 100	> 100	92.6	> 100
COc1cc(/C=C2\CC3C4CC=C5C[C@@H](OC(C)=O)CC[C@]5(C)C4CC[C@]3(C)C2=O)ccc1OCCN1CCCCC1 (stereo not given in full)	4.27	5.53	4.28	22.2	11.6	5.29	28.2	11.2	14.6	28.4	1.99	2.07	1.93	10.4	3.02	2.05	4.27	3.51	2.95	10.1
CCc1ccc(Oc2c(-c3ccc(OCc4ccc(Cl)cc4)cc3O)n[nH]c2C(F)(F)F)cc1	3.35	5.65	3.49	3.35	4.1	3.28	5.87	3.86	3.16	3.74	1.77	2	1.8	1.67	2.05	1.78	2.52	1.88	1.65	1.75
Fc1ccc(-c2c(-c3ccncc3)nc3n2CCS3)cc1	> 25	> 25	> 25	> 25	> 25	> 25	> 25	> 25	> 25	> 25	> 25	> 25	> 25	> 25	> 25	> 25	> 25	> 25	> 12.9	> 25
C/C=C(\C)c1cc(=O)c2c(C)cc3c(c2o1)C(=O)c1c(O)c(C2CC(C)(N(C)C)C(OC(C)=O)C(C)O2)cc(C2CC(N(C)C)C(O)C(C)O2)c1C3=O (stereo not given)	6.49	7.85	3.45	> 11.9	5.94	> 21	> 17.5	7.83	1.27	2.87										
COc1ccccc1Nc1cc(O)c2c(=O)cc(-c3ccccc3)oc2c1	55.2	> 100	2.03	52.6	12	5.2	> 100	41.6	5.34	34.2	2.76	1.63	0.36	4.22	3.37	2.05	4.65	5.13	1.74	5.62
CCc1nc(N)nc(N)c1-c1ccc(Cl)c([N+](=O)[O-])c1	> 100	> 89.7	> 100	> 100	> 100	> 100	> 100	> 100	> 100	90.5										
O=C1NC(=C(Cl)Cl)/C(=N/S(=O)(=O)N2CCCCC2)N1	10.3	> 100	4.21	5	11.2	3.78	4.6	10.5	3.39	7.72	0.499	2.87	1.98	2.2	3.27	2.09	2.1	3.05	1.84	2.92
O=C(O)CSc1n[nH]c(=O)[nH]c1=O	> 100	> 100	> 100	> 100	> 100	> 100	> 100	> 100	> 100	> 100										
O=c1oc2ccc(I)cc2c(=O)n1-c1ccc(Br)cc1F	4.69	9.22	6.42	3.99	10.6	8.89	11.8	6.89	4.39	2.29	2.07	1.34	0.938	0.658	0.5	0.511	0.821	1.94	1.02	0.385
CNC(=O)c1ccc(N2C(=S)N(c3cnc(C#N)c(C(F)(F)F)c3)C(=O)C23CCC3)cc1F	> 100	> 100	> 100	> 100	> 100	> 100	> 100	> 100	> 100	> 100	> 100	99.8	> 100	> 100	> 100	> 100	> 100	> 100	> 44.8	> 100
Cc1c(-c2cnccn2)ssc1=S	> 100	> 100	> 100	> 100	> 100	> 100	> 100	> 100	80.9	> 100										

— PubChem BioAssay (NCI)
